{"source": "paper PMC9866588", "about": "“Novel 7-Chloro-4-aminoquinoline-benzimidazole Hybrids as Inhibitors of Cancer Cells Growth: Synthesis, Antiproliferative Activity, in Silico ADME Predictions, and Docking” (Molecules, 2023)", "key": {"HuT78 cells [1]": {"tested_on": "HuT78 cells", "experiment": "Flow cytometry analysis of cell cycle, HuT78", "format": "cell-based, human", "conditions": "HuT78, 5 μM, 24 h", "experimental": "(§1) To analyze the effects of the selected compounds (5d, 8d, and 12d) on the cell cycle of the HuT78 and THP-1 cells, the cells were seeded in 6-well plates (5 × 10^5 cells per well) and treated for 24 h with the selected compounds 5d and 12d (5 μM). The cells were then collected and fixed in cold 70% ethanol. The fixed samples were stained with 15 µg/mL of propidium iodide (PI) at room temperature and analyzed by flow cytometry (FACS Canto II, BD Biosciences). The results were analyzed using FlowLogic software.\n(§2) One-way ANOVA analysis of variance was performed in the MedCalc statistical program for the analysis of the cell cycle. p-values of less than 0.05 were considered to be statistically significant."}, "[2]": {"tested_on": "THP-1 (acute monocytic leukemia) cells", "experiment": "MTT antiproliferative assay, THP-1", "format": "cell-based, human", "experimental": "(§3) The growth inhibition activity was assessed according to the slightly modified procedure performed at the National Cancer Institute, Developmental Therapeutics Program.\n(§4) The examined compounds were dissolved in DMSO (1 × 10^−2 M). The experiments were carried out on seven human tumor cell lines and a normal cell line. The following cell lines were used: HeLa (human cervical adenocarcinoma; purchased from ATCC), CaCo-2 (human colorectal adenocarcinoma), MCF-7 (human breast adenocarcinoma), CCRF-CEM (human acute lymphoblastic leukemia), Hut78 (T-cell lymphoma), THP-1 (acute monocytic leukemia), Burkitt lymphoma (Raji), and MDCK1 (Madine–Darby canine kidney). The MDCK1 cells were used between 24 and 26 passages.\n(§5) The adherent cells were cultured in Dulbecco’s modified Eagle medium—DMEM (Gibco, Termo Fisher Scientific Inc., Leicestershire, England, UK), supplemented with 10% heat-inactivated fetal bovine serum (FBS, Gibco, Termo Fisher Scientific Inc., Leicestershire, England, UK), 2 mM glutamine, and 100U/0.1mg penicillin/streptomycin. The cells in suspension were cultured in RPMI 1640 (Gibco, Termo Fisher Scientific Inc., Leicestershire, England, UK) medium, supplemented with 10% FBS (Gibco, Termo Fisher Scientific Inc., Leicestershire, England, UK), 2 mM glutamine, 1 mM sodium pyruvate, and 10 mM HEPES. The cells were grown in a humidified atmosphere under the conditions of 37 °C/5% of CO2 gas in the CO2 incubator (IGO 150 CELLlife^TM, JOUAN, Thermo Fisher Scientific, Waltham, MA, USA).\n(§6) The adherent cells (HeLa, CaCo-2, MCF-7, and MDCK-1) were plated in 96-well flat bottom plates (Greiner, Frickenhausen, Austria) at a concentration of 2 × 10^4 cells/mL. The suspension cells (Raji, THP-1, CCRF-CEM and Hut78) were plated in 96-well microtiter plates (Sarstead, Newton, NC, USA) at a concentration of 1 × 10^5 cells/mL. Twenty-four hours later, the cells were treated with test agents in […] and incubated for a further 72 h. The working dilutions were freshly prepared on the day of testing. The solvent was also tested for eventual inhibitory activity by adjusting its concentration to be the same as in the working concentrations. After 72 h of incubation, the cell growth rate was evaluated by performing the MTT assay, which detects dehydrogenase activity in viable cells. For this purpose, upon completion of the incubation period, the growth medium was discarded and 50 μL of MTT was added to each well at a concentration of 5 mg/mL. After four hours of incubation at 37 °C, the water insoluble MTT-formazan crystals were dissolved in 150 μL of dimethyl-sulfoxide (DMSO) for the adherent cells and in 10% SDS with 0.01 mol/L HCl for the cells grown in suspension. The absorbance (OD, optical density) was measured on a microplate reader (iMark, BIO RAD, Hercules, CA, USA) at 595 nm.\n(§7) The percentage of live cells was calculated as follows: % = OD (sample) − OD (background)/OD (control) − OD (background) × 100.\n(§8) The optical density (OD) of the background for the adherent cells is the OD of the MTT solution and DMSO; the OD (background) for the suspension cells is the OD of the culture medium with MTT and 10% SDS with 0.01 mol/L HCl; the OD (control) is the OD of the cells grown without the tested compounds.\n(§9) The calculation of the GI50 value curves and QC analysis was performed using the Excel tools and GraphPadPrism software (La Jolla, CA, USA), v. 5.03. Briefly, individual concentration effect curves are generated by plotting the logarithm of the concentration of the tested compounds (X) vs. the corresponding percent inhibition values (Y) using the least squares fit. The best-fit GI50 values are calculated using log (inhibitor) versus normalized response—variable slope equation, where Y Ľ 100/(1 ţ 10 ((LogIC50 _ X) × HillSlope)). The QC criteria parameters (Z0, S:B, R2, HillSlope) were checked for every GI50 curve."}, "[3]": {"tested_on": "CCRF-CEM (human acute lymphoblastic leukemia) cells", "experiment": "MTT antiproliferative assay, CCRF-CEM", "format": "cell-based", "conditions": "Homo sapiens, CCRF-CEM; 72 h, MTT, mean ± SD of three independent experiments", "experimental": "as §3, §4, §5, §6, §7, §8, §9"}, "[4]": {"tested_on": "MDCK1 (Madine–Darby canine kidney) cells", "experiment": "MTT antiproliferative assay, MDCK1", "format": "cell-based", "conditions": "mean ± SD of three independent experiments", "experimental": "as §3, §4, §5, §6, §7, §8, §9"}, "[5]": {"tested_on": "Raji (Burkitt lymphoma) cells", "experiment": "MTT antiproliferative assay, Raji", "format": "cell-based, human", "conditions": "Homo sapiens, Raji; 72 h, MTT, mean ± SD of three independent experiments", "experimental": "as §3, §4, §5, §6, §7, §8, §9"}, "HuT78 cells [6]": {"tested_on": "HuT78 cells", "experiment": "Annexin V-FITC/PI apoptosis detection", "format": "cell-based, human", "conditions": "HuT78, 5 μM, 24 h", "experimental": "The proapoptotic potential of compounds 5d and 12d was tested on the HuT78 cells using the Annexin V-FITC Apoptosis Staining/Detection Kit (ab14085; abcam, UK). The cells were plated in 6-well plates at a concentration of 5 × 10^5 cells/well and treated for 24 h with 12d at a concentration of 5 μM. After the incubation period, the cells were collected and centrifuged at 1100 rpm for 6 min, stained according to the manufacturer‘s protocol, and analyzed by flow cytometry (BD FACSCalibur, Becton Dickinson, San Jose, CA, USA) using FlowJo software (FlowJo, LLC, Ashland, OR, USA)."}, "[7]": {"tested_on": "Hut78 (T-cell lymphoma) cells", "experiment": "MTT antiproliferative assay, HuT78", "format": "cell-based, human", "experimental": "as §3, §4, §5, §6, §7, §8, §9"}, "THP-1 cells": {"tested_on": "THP-1 cells", "experiment": "Flow cytometry analysis of cell cycle, THP-1", "format": "cell-based, human", "conditions": "THP-1, 5 μM, 24 h", "experimental": "as §1, §2"}}}
{"smiles": "Clc1ccc2c(Nc3cccc(-c4nc5ccccc5[nH]4)c3)ccnc2c1", "note": "[Compound 5d, N-(3-(1H-benzo[d]imidazol-2-yl)phenyl)-7-chloroquinolin-4-amine]", "values": [{"measurement": "proportion of polyploid giant cancer cells", "setting": "HuT78 cells [1]", "value": "increased proportion"}, {"measurement": "decrease in G0/G1 phase", "setting": "HuT78 cells [1]; vs control", "value": 5, "unit": "times"}, {"measurement": "increase in G2/M phase", "setting": "HuT78 cells [1]; vs control", "value": 2, "unit": "times"}, {"measurement": "increase of cells in subG0/G1 phase", "setting": "HuT78 cells [1]; vs control", "value": 13, "unit": "times"}, {"measurement": "GI50", "setting": "[2]; Homo sapiens, THP-1, 72 h, MTT, mean ± SD of three independent experiments, read-out: GI50 THP1", "value": "0.6 ± 0.3", "unit": "µM"}, {"measurement": "tumor selectivity index (SI) THP1", "setting": "[2]; with respect to MDCK1 cells", "value": 34}, {"measurement": "GI50", "setting": "[3]", "value": "8.2 ± 6.2", "unit": "µM"}, {"measurement": "GI50", "setting": "[4]; 72 h", "value": "20.4 ± 2.8", "unit": "µM"}, {"measurement": "GI50", "setting": "[4]; Canis lupus familiaris, MDCK1, 72 h", "value": "11.4 to 20.4", "unit": "µM"}, {"measurement": "GI50", "setting": "[5]", "value": "4.3 ± 1.2", "unit": "µM"}, {"measurement": "cells alive", "setting": "HuT78 cells [6]", "value": "about 64%"}, {"measurement": "cells in early apoptosis", "setting": "HuT78 cells [6]", "value": 24.75, "unit": "%"}, {"measurement": "cells in late stage of apoptosis/necrosis", "setting": "HuT78 cells [6]", "value": 8.3, "unit": "%"}, {"measurement": "GI50", "setting": "[7]; Homo sapiens, HuT78, 72 h, MTT, mean ± SD of three independent experiments", "value": "0.4 ± 0.3", "unit": "µM"}, {"measurement": "tumor selectivity index (SI) HuT78", "setting": "[7]; with respect to MDCK1 cells", "value": 51}, {"measurement": "proportion of polyploid giant cancer cells", "setting": "THP-1 cells", "value": "increased proportion"}, {"measurement": "decrease in G0/G1 phase", "setting": "THP-1 cells; vs control", "value": 4.5, "unit": "times"}, {"measurement": "increase in G2/M phase", "setting": "THP-1 cells; vs control", "value": 62.8, "unit": "%"}, {"measurement": "increase of cells in subG0/G1 phase", "setting": "THP-1 cells; vs control", "value": 2.9, "unit": "times"}]}
